Test results taken from ChEMBL document CHEMBL1201862, “PubChem BioAssay data set” (2004).
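Grown in 96-well plates, cells were treated for 48 hours with each compound at five concentrations. Insufficient inhibition: endpoint recorded as highest concentration tested. GI50 marks 50% less growth.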 Active and inactive are the calls of the source. Rule as the data show it: active = GI50 up to about 1.1 µM and inactive = higher.

Tests used:
Assay in all cases: NCI-60 cell line screen, 48 h
PC-3 = system: PC-3
SW-620 = system: SW-620
NCI-H460 = system: NCI-H460
786-0 = system: 786-0
SK-MEL-28 = system: SK-MEL-28
UO-31 = system: UO-31
HCT-116 = system: HCT-116
CCRF-CEM = system: CCRF-CEM
IGROV-1 = system: IGROV-1
UACC-62 = system: UACC-62
SK-MEL-5 = system: SK-MEL-5
BT-549 = system: BT-549
U-251 = system: U-251
DU-145 = system: DU-145
TK-10 = system: TK-10
KM12 = system: KM12
SN12C = system: SN12C
NCI-H23 = system: NCI-H23
A549 = system: A549
K562 = system: K562
COLO 205 = system: COLO 205
NCI/ADR-RES = system: NCI/ADR-RES
HOP-92 = system: HOP-92
MDA-N = system: MDA-N
Hs-578T = system: Hs-578T
RXF 393 = system: RXF 393
SNB-19 = system: SNB-19
A498 = system: A498
SF-539 = system: SF-539
SR = system: SR
OVCAR-3 = system: OVCAR-3
MDA-MB-231 = system: MDA-MB-231
MCF7 = system: MCF7
HT-29 = system: HT-29
RPMI-8226 = system: RPMI-8226
ACHN = system: ACHN
NCI-H226 = system: NCI-H226
NCI-H522 = system: NCI-H522
OVCAR-8 = system: OVCAR-8
SNB-75 = system: SNB-75
UACC-257 = system: UACC-257
HCT-15 = system: HCT-15
SK-OV-3 = system: SK-OV-3
SF-268 = system: SF-268
MOLT-4 = system: MOLT-4
EKVX = system: EKVX
CAKI-1 = system: CAKI-1
Malme-3M = system: Malme-3M
LOX IMVI = system: LOX IMVI
OVCAR-5 = system: OVCAR-5
OVCAR-4 = system: OVCAR-4
SK-MEL-2 = system: SK-MEL-2
SF-295 = system: SF-295
HOP-62 = system: HOP-62
T47D = system: T47D
HCC 2998 = system: HCC 2998
MDA-MB-435 = system: MDA-MB-435
M14 = system: M14
HL-60 = system: HL-60

With `O=S(=O)(NC1OCCCC1I)c1ccccc1` (stereo not drawn) the GI50 (PC-3) was > 100 µM (inactive), the GI50 (SW-620) was > 100 µM (inactive) and the GI50 (NCI-H460) was > 100 µM (inactive). For the same compound, the GI50 (786-0) was > 100 µM (inactive), the GI50 (SK-MEL-28) was > 100 µM (inactive) and the GI50 (UO-31) was > 100 µM (inactive). The GI50 (HCT-116) was > 100 µM (inactive), the GI50 (CCRF-CEM) was 68.4 µM (inactive) and the GI50 (IGROV-1) was 44.5 µM (inactive). The GI50 (UACC-62) was > 100 µM (inactive), the GI50 (SK-MEL-5) was > 100 µM (inactive) and the GI50 (BT-549) was > 100 µM (inactive). For the same compound, the GI50 (U-251) was > 100 µM (inactive), the GI50 (DU-145) was > 100 µM (inactive) and the GI50 (TK-10) was > 100 µM (inactive). For the same compound, the GI50 (KM12) was > 100 µM (inactive), the GI50 (SN12C) was > 100 µM (inactive) and the GI50 (NCI-H23) was > 100 µM (inactive). The GI50 (A549) was > 100 µM (inactive), the GI50 (K562) was > 100 µM (inactive) and the GI50 (COLO 205) was > 100 µM (inactive). For the same compound, the GI50 (NCI/ADR-RES) was > 100 µM (inactive), the GI50 (HOP-92) was > 100 µM (inactive) and the GI50 (MDA-N) was > 100 µM (inactive). For the same compound, the GI50 (Hs-578T) was > 100 µM (inactive), the GI50 (RXF 393) was > 100 µM (inactive) and the GI50 (SNB-19) was > 100 µM (inactive). The GI50 (A498) was > 100 µM (inactive), the GI50 (SF-539) was > 100 µM (inactive) and the GI50 (SR) was > 100 µM (inactive). For the same compound, the GI50 (OVCAR-3) was > 100 µM (inactive), the GI50 (MDA-MB-231) was > 100 µM (inactive) and the GI50 (MCF7) was > 100 µM (inactive). The GI50 (HT-29) was > 100 µM (inactive), the GI50 (RPMI-8226) was 43.2 µM (inactive) and the GI50 (ACHN) was > 100 µM (inactive). The GI50 (NCI-H226) was > 100 µM (inactive), the GI50 (NCI-H522) was > 100 µM (inactive) and the GI50 (OVCAR-8) was > 100 µM (inactive). The GI50 (SNB-75) was > 100 µM (inactive), the GI50 (UACC-257) was > 100 µM (inactive) and the GI50 (HCT-15) was over 100 µM. For the same compound, the GI50 (SK-OV-3) was > 100 µM (inactive), the GI50 (SF-268) was > 100 µM (inactive) and the GI50 (MOLT-4) was > 100 µM (inactive). For the same compound, the GI50 (EKVX) was > 100 µM (inactive), the GI50 (CAKI-1) was > 100 µM (inactive) and the GI50 (Malme-3M) was > 100 µM (inactive). For the same compound, the GI50 (LOX IMVI) was 84.9 µM (inactive), the GI50 (OVCAR-5) was > 100 µM (inactive) and the GI50 (OVCAR-4) was 89.7 µM (inactive). For the same compound, the GI50 (SK-MEL-2) was > 100 µM (inactive), the GI50 (SF-295) was > 100 µM (inactive) and the GI50 (HOP-62) was > 100 µM (inactive). For the same compound, the GI50 (T47D) was > 100 µM (inactive), the GI50 (HCC 2998) was > 100 µM (inactive) and the GI50 (MDA-MB-435) was > 100 µM (inactive).

In the case of `CC(C)(C)OC(=O)NC(Cc1ccc([N+](=O)[O-])cc1)C(=O)NC(CCCCNC(=O)OCc1ccccc1)C(=O)ON1C(=O)CCC1=O` (stereo not drawn), the GI50 (PC-3) is reported as 52.5 µM (inactive), the GI50 (SW-620) is reported as 26.7 µM (inactive) and the GI50 (NCI-H460) is reported as > 100 µM (inactive). For the same compound, the GI50 (786-0) was > 100 µM (inactive), the GI50 (SK-MEL-28) was > 100 µM (inactive) and the GI50 (UO-31) was > 100 µM (inactive). The GI50 (HCT-116) was 73.5 µM (inactive), the GI50 (IGROV-1) was > 100 µM (inactive) and the GI50 (UACC-62) was > 100 µM (inactive). The GI50 (SK-MEL-5) was > 100 µM (inactive), the GI50 (BT-549) was > 100 µM (inactive) and the GI50 (U-251) was > 100 µM (inactive). For the same compound, the GI50 (DU-145) was > 100 µM (inactive), the GI50 (TK-10) was > 100 µM (inactive) and the GI50 (KM12) was > 100 µM (inactive). The GI50 (SN12C) was 70.6 µM (inactive), the GI50 (NCI-H23) was > 100 µM (inactive) and the GI50 (A549) was > 100 µM (inactive). The GI50 (K562) was 14.4 µM (inactive), the GI50 (COLO 205) was > 100 µM (inactive) and the GI50 (NCI/ADR-RES) was > 100 µM (inactive). For the same compound, the GI50 (HOP-92) was > 100 µM (inactive), the GI50 (MDA-N) was > 100 µM (inactive) and the GI50 (Hs-578T) was > 100 µM (inactive). For the same compound, the GI50 (RXF 393) was > 100 µM (inactive), the GI50 (SNB-19) was > 100 µM (inactive) and the GI50 (M14) was 70.3 µM (inactive). For the same compound, the GI50 (A498) was > 100 µM (inactive), the GI50 (SF-539) was > 100 µM (inactive) and the GI50 (SR) was 49.4 µM (inactive). The GI50 (OVCAR-3) was > 100 µM (inactive), the GI50 (MDA-MB-231) was 43.8 µM (inactive) and the GI50 (MCF7) was > 100 µM (inactive). For the same compound, the GI50 (HT-29) was > 100 µM (inactive), the GI50 (RPMI-8226) was 57 µM (inactive) and the GI50 (ACHN) was > 100 µM (inactive). The GI50 (NCI-H226) was > 100 µM (inactive), the GI50 (NCI-H522) was > 100 µM (inactive) and the GI50 (OVCAR-8) was > 100 µM (inactive). The GI50 (SNB-75) was > 100 µM (inactive), the GI50 (HCT-15) was over 100 µM and the GI50 (SK-OV-3) was > 100 µM (inactive). The GI50 (SF-268) was 44.2 µM (inactive), the GI50 (MOLT-4) was 57.9 µM (inactive) and the GI50 (EKVX) was > 100 µM (inactive). The GI50 (CAKI-1) was > 100 µM (inactive), the GI50 (Malme-3M) was > 100 µM (inactive) and the GI50 (LOX IMVI) was 28.8 µM (inactive). The GI50 (OVCAR-5) was > 100 µM (inactive), the GI50 (HL-60) was 78.3 µM (inactive) and the GI50 (OVCAR-4) was > 100 µM (inactive). For the same compound, the GI50 (SF-295) was 40 µM (inactive), the GI50 (HOP-62) was > 100 µM (inactive) and the GI50 (T47D) was > 10 µM (inactive). For the same compound, the GI50 (HCC 2998) was 24.4 µM (inactive) and the GI50 (MDA-MB-435) was > 100 µM (inactive).
